Active and inactive are the calls of the source. No cut-off for these calls is given here.

Assay [1] deals with RAF proto-oncogene serine/threonine-protein kinase (Homo sapiens) (UniProt P04049). The assay can be described thus: Residual activity of humna c-RAF at 1 uM relative to control.
Assay [2] has as its target Platelet-derived growth factor receptor beta (Homo sapiens) (UniProt P09619). The assay can be described thus: Inhibition of human PDGFRbeta at 1 uM relative to control; values are per cent of control.
Assay [3] deals with Tyrosine-protein kinase CSK (Homo sapiens) (UniProt P41240). The experiment in a line: Inhibition of human CSK at 1 uM relative to control; values are per cent of control.
Chain of Tyrosine-protein kinase CSK (Homo sapiens) (P41240 2-450 limits assumed): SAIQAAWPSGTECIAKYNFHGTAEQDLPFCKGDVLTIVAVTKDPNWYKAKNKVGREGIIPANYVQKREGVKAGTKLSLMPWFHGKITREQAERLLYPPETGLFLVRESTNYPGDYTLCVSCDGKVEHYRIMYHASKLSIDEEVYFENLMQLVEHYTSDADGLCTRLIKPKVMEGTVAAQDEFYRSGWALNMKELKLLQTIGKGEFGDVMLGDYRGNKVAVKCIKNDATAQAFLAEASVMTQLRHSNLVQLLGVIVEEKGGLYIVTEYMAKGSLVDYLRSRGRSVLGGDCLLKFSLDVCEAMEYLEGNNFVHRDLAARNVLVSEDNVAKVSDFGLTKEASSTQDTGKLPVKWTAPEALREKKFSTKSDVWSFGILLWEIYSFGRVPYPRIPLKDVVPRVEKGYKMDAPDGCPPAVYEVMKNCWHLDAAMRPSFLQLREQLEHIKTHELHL
Assay [4] concerns the target T1, Calcium/calmodulin-dependent protein kinase type IV (Homo sapiens) (UniProt Q16566).
T1 sequence (whole entry): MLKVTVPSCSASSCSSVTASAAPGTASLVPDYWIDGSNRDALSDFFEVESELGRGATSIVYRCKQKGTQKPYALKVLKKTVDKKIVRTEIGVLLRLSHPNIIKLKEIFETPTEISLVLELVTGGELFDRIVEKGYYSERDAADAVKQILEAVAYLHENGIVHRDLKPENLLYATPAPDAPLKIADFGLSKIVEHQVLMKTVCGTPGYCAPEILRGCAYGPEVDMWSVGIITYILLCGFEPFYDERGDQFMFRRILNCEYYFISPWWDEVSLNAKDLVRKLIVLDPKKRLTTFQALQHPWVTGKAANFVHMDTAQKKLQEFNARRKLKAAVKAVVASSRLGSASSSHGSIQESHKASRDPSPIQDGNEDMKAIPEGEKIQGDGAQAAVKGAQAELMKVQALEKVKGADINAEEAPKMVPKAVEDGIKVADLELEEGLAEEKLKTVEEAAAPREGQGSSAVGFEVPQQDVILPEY
The assay can be described thus: Residual activity of human CaMK4 at 1 uM relative to control.

Assay [5] concerns the target Macrophage colony-stimulating factor 1 receptor (Homo sapiens) (UniProt P07333). The assay can be described thus: Residual activity of human Fms at 1 uM relative to control.
In assay [6] the target is Tyrosine-protein kinase receptor UFO (Homo sapiens) (UniProt P30530). The assay can be described thus: Residual activity of human Axl at 1 uM relative to control.
The species entered for assay [7] is Homo sapiens. The assay can be described thus: Inhibition of human CDK2/Cyclin E at 1 uM relative to control; values are per cent of control.
The target of assay [8] is 3-phosphoinositide-dependent protein kinase 1 (Homo sapiens) (UniProt O15530). The assay can be described thus: Inhibition of human PDK1 at 1 uM relative to control; values are per cent of control.
Chain of 3-phosphoinositide-dependent protein kinase 1 (Homo sapiens) (O15530 whole entry, looked up): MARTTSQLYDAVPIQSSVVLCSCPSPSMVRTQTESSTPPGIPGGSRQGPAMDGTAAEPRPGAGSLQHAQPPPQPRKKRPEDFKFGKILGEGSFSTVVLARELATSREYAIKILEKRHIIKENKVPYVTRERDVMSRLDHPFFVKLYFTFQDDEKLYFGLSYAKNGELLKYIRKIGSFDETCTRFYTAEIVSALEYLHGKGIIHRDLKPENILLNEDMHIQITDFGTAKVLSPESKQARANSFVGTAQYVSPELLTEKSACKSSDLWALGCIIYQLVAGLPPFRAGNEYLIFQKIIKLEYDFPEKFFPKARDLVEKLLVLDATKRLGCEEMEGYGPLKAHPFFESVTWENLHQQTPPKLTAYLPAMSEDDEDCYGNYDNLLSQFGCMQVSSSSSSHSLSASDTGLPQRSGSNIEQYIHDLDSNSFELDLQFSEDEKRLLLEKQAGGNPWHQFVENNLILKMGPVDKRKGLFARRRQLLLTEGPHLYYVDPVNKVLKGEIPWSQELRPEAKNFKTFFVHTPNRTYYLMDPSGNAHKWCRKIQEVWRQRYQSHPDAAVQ
In assay [9] the target is Fibroblast growth factor receptor 3 (Homo sapiens) (UniProt P22607). The experiment in a line: Residual activity of human FGFR3 at 1 uM relative to control.
Chain of Fibroblast growth factor receptor 3 (Homo sapiens) (P22607 23-806 limits assumed): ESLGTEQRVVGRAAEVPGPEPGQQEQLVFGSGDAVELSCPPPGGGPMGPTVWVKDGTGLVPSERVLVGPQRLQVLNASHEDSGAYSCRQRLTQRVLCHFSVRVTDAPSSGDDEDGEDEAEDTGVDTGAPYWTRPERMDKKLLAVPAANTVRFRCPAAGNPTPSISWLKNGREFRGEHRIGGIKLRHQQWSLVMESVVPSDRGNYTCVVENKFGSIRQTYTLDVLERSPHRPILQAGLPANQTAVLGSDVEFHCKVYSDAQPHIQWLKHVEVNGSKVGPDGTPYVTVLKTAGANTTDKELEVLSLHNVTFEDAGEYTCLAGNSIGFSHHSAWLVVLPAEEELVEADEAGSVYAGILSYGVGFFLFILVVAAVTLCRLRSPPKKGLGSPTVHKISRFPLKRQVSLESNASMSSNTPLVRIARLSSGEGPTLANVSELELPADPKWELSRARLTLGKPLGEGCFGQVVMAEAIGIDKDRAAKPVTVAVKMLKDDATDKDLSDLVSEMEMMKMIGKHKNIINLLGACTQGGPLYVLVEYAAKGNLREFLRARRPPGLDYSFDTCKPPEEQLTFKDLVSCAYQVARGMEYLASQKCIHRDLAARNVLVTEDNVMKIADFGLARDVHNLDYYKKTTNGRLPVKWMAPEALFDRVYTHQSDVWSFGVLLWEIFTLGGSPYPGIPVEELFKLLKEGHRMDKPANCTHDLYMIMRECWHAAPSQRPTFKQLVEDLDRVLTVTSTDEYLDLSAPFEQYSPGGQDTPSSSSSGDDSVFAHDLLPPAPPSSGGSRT
For assay [10], the target named is Mitogen-activated protein kinase 10 (Homo sapiens) (UniProt P53779). The experiment in a line: Inhibition of human JNK3 at 1 uM relative to control; values are per cent of control.
The target in assay [11] is Protein kinase C gamma type (Homo sapiens) (UniProt P05129). The experiment in a line: Residual activity of human PKCgamma at 1 uM relative to control.
For assay [12], the target named is Glycogen synthase kinase-3 beta (Homo sapiens, UniProt P49841). The assay can be described thus: Inhibition of human recombinant GSK3-beta.
Chain of Glycogen synthase kinase-3 beta (P49841 whole entry): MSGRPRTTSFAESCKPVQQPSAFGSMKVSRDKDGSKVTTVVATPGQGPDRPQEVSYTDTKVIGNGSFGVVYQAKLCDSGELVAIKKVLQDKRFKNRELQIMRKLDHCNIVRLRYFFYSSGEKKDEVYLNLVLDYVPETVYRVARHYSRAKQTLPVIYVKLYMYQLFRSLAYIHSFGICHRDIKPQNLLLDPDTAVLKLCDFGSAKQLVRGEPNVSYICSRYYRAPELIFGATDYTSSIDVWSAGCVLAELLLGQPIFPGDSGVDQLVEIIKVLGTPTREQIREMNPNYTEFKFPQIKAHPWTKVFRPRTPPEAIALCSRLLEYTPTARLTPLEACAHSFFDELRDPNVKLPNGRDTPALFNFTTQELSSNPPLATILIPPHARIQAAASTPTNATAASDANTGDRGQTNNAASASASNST
The species entered for assay [13] is Homo sapiens. The experiment in a line: Residual activity of human PKBalpha at 1 uM relative to control.
The target in assay [14] is Cyclin-dependent kinase 5/CDK5 activator 1 (Homo sapiens) (UniProt Q00535+Q15078). The experiment in a line: Inhibition of human CDK5/p35 at 1 uM relative to control; values are per cent of control.
Assay [15] has as its target Casein kinase II (Homo sapiens) (UniProt P67870+P68400+P19784). The experiment in a line: Inhibition of human CK2 at 1 uM relative to control; values are per cent of control.
For assay [16], the target named is Glycogen synthase kinase-3 alpha (Homo sapiens) (UniProt P49840). The assay can be described thus: Inhibition of human GSK3alpha relative to control; values are per cent of control.
Chain of Glycogen synthase kinase-3 alpha (Homo sapiens) (P49840 2-483 limits assumed): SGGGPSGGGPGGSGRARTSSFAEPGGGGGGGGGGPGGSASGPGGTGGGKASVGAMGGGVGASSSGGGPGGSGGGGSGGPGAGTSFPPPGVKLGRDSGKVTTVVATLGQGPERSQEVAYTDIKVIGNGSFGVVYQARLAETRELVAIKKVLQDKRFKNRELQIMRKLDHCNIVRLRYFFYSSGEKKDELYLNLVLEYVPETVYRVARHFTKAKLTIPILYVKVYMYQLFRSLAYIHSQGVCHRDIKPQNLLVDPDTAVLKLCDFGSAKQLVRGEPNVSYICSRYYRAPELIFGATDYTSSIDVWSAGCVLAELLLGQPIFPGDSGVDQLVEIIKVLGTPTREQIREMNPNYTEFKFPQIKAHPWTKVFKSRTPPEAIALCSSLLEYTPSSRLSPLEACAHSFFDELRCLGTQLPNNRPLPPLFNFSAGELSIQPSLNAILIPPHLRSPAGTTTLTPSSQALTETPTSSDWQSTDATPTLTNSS
The species entered for assay [17] is Homo sapiens. The experiment in a line: Residual activity of human PKBgamma at 1 uM relative to control.
In assay [18] the target is Tyrosine-protein kinase Fyn (Homo sapiens) (UniProt P06241). The experiment in a line: Inhibition of human Fyn at 1 uM relative to control; values are per cent of control.
Chain of Tyrosine-protein kinase Fyn (Homo sapiens) (P06241 2-537 limits assumed): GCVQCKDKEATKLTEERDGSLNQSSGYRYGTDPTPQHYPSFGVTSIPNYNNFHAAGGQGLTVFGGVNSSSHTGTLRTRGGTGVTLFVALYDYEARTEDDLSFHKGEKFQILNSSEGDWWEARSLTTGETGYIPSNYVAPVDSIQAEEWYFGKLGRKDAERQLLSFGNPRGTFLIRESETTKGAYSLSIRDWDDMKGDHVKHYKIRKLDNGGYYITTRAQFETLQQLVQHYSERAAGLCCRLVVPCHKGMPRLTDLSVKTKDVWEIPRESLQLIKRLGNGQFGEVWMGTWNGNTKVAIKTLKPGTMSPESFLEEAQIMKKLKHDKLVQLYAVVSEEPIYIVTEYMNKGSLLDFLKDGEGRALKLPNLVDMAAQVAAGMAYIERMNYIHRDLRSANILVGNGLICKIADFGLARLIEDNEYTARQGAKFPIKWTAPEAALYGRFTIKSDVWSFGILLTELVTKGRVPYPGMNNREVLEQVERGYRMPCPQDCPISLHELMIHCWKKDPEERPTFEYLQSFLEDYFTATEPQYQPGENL
For assay [19], the species on record is Homo sapiens. The experiment in a line: Residual activity of human CDK6/Cyclin D at 1 uM relative to control.
The target of assay [20] is T2, BDNF/NT-3 growth factors receptor (Homo sapiens, UniProt Q16620). The experiment in a line: Inhibition of human TrkB at 1 uM relative to control.
Assay [21] has as its target Cytoplasmic tyrosine-protein kinase BMX (Homo sapiens) (UniProt P51813). The experiment in a line: Inhibition of human BMX kinase at 1 uM relative to control; values are per cent of control.
In assay [22] the target is T2, BDNF/NT-3 growth factors receptor. The experiment in a line: Inhibition of human TrkB.
The target of assay [23] is Protein kinase C theta type (Homo sapiens, UniProt Q04759). The assay can be described thus: Inhibition of human PKCtheta.
Assay [24] is filed under the species Homo sapiens. The assay can be described thus: Selectivity for human recombinant GSK3-beta over human recombinant PKCbeta2.
Assay [25] addresses Ribosomal protein S6 kinase alpha-5 (Homo sapiens, UniProt O75582). The assay can be described thus: Inhibition of human MSK1.
Assay [26] addresses Ribosomal protein S6 kinase alpha-1 (Homo sapiens, UniProt Q15418). The assay can be described thus: Inhibition of human Rsk1.

Chain of RAF proto-oncogene serine/threonine-protein kinase (Homo sapiens) (P04049 whole entry): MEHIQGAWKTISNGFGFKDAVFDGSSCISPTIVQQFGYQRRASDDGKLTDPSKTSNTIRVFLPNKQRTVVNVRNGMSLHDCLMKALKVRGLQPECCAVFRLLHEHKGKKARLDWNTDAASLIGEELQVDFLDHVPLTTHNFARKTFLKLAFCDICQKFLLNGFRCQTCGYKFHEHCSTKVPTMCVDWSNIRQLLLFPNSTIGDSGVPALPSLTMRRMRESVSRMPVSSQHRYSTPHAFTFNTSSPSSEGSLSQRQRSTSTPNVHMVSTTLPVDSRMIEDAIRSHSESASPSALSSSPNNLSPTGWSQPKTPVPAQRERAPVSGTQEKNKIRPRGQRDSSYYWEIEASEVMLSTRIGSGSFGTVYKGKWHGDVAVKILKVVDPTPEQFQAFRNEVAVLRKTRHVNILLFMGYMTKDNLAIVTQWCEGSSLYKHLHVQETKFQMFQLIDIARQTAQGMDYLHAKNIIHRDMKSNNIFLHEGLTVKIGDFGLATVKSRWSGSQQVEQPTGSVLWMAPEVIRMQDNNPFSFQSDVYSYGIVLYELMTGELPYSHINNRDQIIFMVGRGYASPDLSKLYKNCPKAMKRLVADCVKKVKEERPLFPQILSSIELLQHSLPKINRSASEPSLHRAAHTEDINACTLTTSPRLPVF

`CN(C)c1cc2cc(n1)CCCn1cc(c3ccccc31)C1=C(C(=O)NC1=O)c1cn(c3ccccc13)CCC2`: the residual activity in [1] is 87%; in assay [2], 101%; in assay [3], 133%; in assay [4], 113%; in assay [5], 101%; in [6], 104%. The residual activity was found to be 84% in the assay filed under Homo sapiens [7]; 104% in assay [8]; 84% in assay [9]; 107% in [10]; 107% in assay [11]; 114% in the assay listed under Homo sapiens [13]. Moreover, the residual activity in assay [14] was 105%; in assay [15], 111%; in [16], 3%; in the assay listed under Homo sapiens [17], 106%; in assay [18], 106%; in the assay listed under Homo sapiens [19], 74%. Also, the IC50 in [12] worked out at 7 nM.

As to `O=C1NC(=O)C2=C1c1cn(c3ccccc13)CCCc1ccc(c(N3CCCC3)n1)CCCn1cc2c2ccccc21`, the residual activity came to 85% in assay [1]; 105% in assay [2]; 129% in [3]; 99% in [4]; 106% in assay [5]; 100% in assay [6]. For the same molecule, the residual activity stood at 88% in the assay filed under Homo sapiens [7]; 100% in [8]; 117% in assay [9]; 102% in assay [10]; 102% in assay [11]; 106% in the assay filed under Homo sapiens [13]. In addition, the residual activity in assay [14] was 104%; in [15], 113%; in assay [16] it was 9%; in the assay listed under Homo sapiens [17] it was 105%; in [18], 103%; in the assay filed under Homo sapiens [19], 92%. The half-maximal inhibitory concentration (IC50) in assay [12] is 30 nM.

As for `O=C1NC(=O)C2=C1c1cn(c3ccccc13)CCCc1cc(nc(N3CCCC3)c1)CCCn1cc2c2ccccc21`, the residual activity in assay [1] was 92%; in assay [2] it was 103%; in assay [3] it was 125%; in assay [4], 112%; in assay [5] it was 99%; in assay [6], 106%. Besides, the residual activity in the assay filed under Homo sapiens [7] worked out at 88%; in assay [8] it was 107%; in assay [9] it was 114%; in assay [10], 103%; in assay [11], 99%; in the assay listed under Homo sapiens [13] it was 112%. In addition, the residual activity came out at 99% in assay [14]; 108% in [15]; 4% in assay [16]; 103% in the assay listed under Homo sapiens [17]; 106% in assay [18]; 82% in the assay filed under Homo sapiens [19]. Moreover, in assay [12], the 50% inhibitory concentration (IC50) came to 11 nM.

Consider `CN(C)c1nc2ccc1CCCn1cc(c3ccccc31)C1=C(C(=O)NC1=O)c1cn(c3ccccc13)CC2`, for which the residual activity in assay [1] was determined as 103%; in assay [2], 147%; in assay [21] it was 101%; in assay [3] it was 95%; in [4], 92%; in [5], 94%. Moreover, the residual activity in [6] was 97%; in the assay listed under Homo sapiens [7] it was 54%; in assay [8] it was 115%; in assay [9], 75%; in [10], 96%; in assay [11], 91%. The residual activity amounted to 94% in the assay listed under Homo sapiens [13]; 99% in assay [14]; 107% in [15]; 4% in [16]; 93% in the assay filed under Homo sapiens [17]; 103% in assay [18]. Further, the residual activity in the assay filed under Homo sapiens [19] came out at 86%. Moreover, the outcome in assay [20] was inactive. The concentration for half-maximal inhibition (IC50) is greater than 3000 nM in [22]; 98 nM in assay [23]; 3 nM in [12]; 510 nM in assay [25]; 1900 nM in assay [26]. For the same molecule, in the assay listed under Homo sapiens [24], the Ratio IC50 amounted to 460.

Source of the values: ChEMBL document CHEMBL1139192, “Novel bis(indolyl)maleimide pyridinophanes that are potent, selective inhibitors of glycogen synthase kinase-3” (Bioorg Med Chem Lett, 2007).
